Laboratory results taken from US20100047373A9, “Method for Extracting Plants of the Genus Pelargonium, Extract Produced According to Said Method, and Use Thereof” (EMSPHARM GMBH, priority 2005, published 2010).

Tested on: EMC virus/L929 (IFN) test model
Experiment: Cytoprotective effect / IFN values in the EMC virus/L929 (IFN) test model
Format: cell-based, murine
Details: determined from 8 standard curves
Protocol: Determining the Cytoprotective Effect by Obtaining the Values for IFN in the EMC Virus/L929 (IFN) Test Model
L929 (IFN) cells (batch no. 5577) were cultured, trypsinized, washed and counted in 100-mL culture dishes. The suspension was adjusted to 2×10^5 cells/mL and sown in microtitre plates with 2×10^4 cells/well, which were incubated over night at 37° C., 5% CO2. After that, the supernatant was replaced by 100 μL each medium control, cell control, virus control with rMuIFN-γ control, rMuIFN-γ standard (100 U/mL) and test solution, all of which were diluted lineally.
The samples were incubated for exactly eight hours at 37° C., 5% CO2. After the end of the incubation time, 100 μL each of the vital suspension used were pipetted into the vital and interferon controls and into the test solutions and again incubated over night at 37° C., 5% CO2.
After 22 hours, fully developed viral activity appeared (cell lysis must be distinctly pronounced in the vital control), so that the lysis was interrupted. The supernatants were discarded via the wash basin 100 μl of a 0.5% crystal violet solution were pipetted into each well. […] The absorption of the crystal violet staining was determined on the ELISA reader at 550 nm. […] The ED50 value of the rMuIFN-γ standard was at 1,076 U/mL (determined from 8 standard curves).

“rMuIFN-γ standard: rMuIFN-γ standard (100 U/mL) used in the EMC virus/L929 (IFN) test” was tested, and the “ED50 value of the rMuIFN-γ standard” value was 1,076 U/mL.
